Test results from patent US6893829B2, “Human leukocyte 12-lipoxygenase and its role in the pathogenesis of disease states” (City of Hope, priority 1992, dated 2005).

Tests used:
12-LO activity in HSMC = test: 12-HETE release and cell-associated 12-HETE in HSMC (HPLC/RIA); type: cell-based, human
Procedure: FIG. 3A illustrates the effect of AII on 12-HETE release by HSMC. HSMC were grown to confluency. Serum was removed and cells were incubated in media 199 containing 0.4% fetal bovine serum (FBS) and 0.2% BSA for 18 hours. Cells were then washed with DME media and incubated for 20 minutes in DME media containing 0.2% BSA. AII was added to the cells for five and ten minutes at the concentrations of 10^−9 and 10^−8 mol/L. Media were collected for HETE assay. • *p<0.05 vs control n=4
FIG. 3B illustrates the effect of AII on cell-associated 12-HETE levels in HSMC. After collecting supernatants, cells were washed with ice-cold PBS and harvested by scraping for the assay of cell-associated HETEs. • *p<0.02 vs control n=4
HSMC and HAEC monolayers were washed twice with ice-cold PBS and then processed for RNA extraction or western analysis as described below. For hydroxyeicosatetraenoic acid (HETE) assay, approximately 24 hours prior to an experiment, the medium was replaced with medium 199 containing 0.4% FBS and 0.2% BSA.
These assays were performed using previously published methods (10,11). Briefly, 12- and 15-HETE are extracted from supernatants and cells on C18 mini columns (Analytichem International, CA) and measured using our validated reverse phase gradient HPLC and (RIA) methods.
Another major aspect of this invention is the discovery that AII increases the activity and expression of 12-LO mRNA and protein in HSMC.

PAK = PAK activity in CHO-AT1a cells; type: cell-based, Chinese hamster; conditions: AII 10^−7M, 30 minutes
Procedure: Cell lysis and PAK activity measurement were performed as described in Science, 269:221-223 (1995). Cells were lysed on ice in 50 mM Tris-HCl, 150 mM NaCl, 5 mM EGTA, 50 mM NaF, 10 mM Na pyrophosphate, 1% NP-40, 2.5% glycerol, and 1 mM Na3VO4 (pH 7.5), containing protease inhibitors PMSF, leupeptin and aprotinin. Cell were centrifuged for 10 minutes at 1000 g. For immunoprecipitation, the supernatants were incubated with anti-PAK1 or anti-PAK2 antibody (1:25) (Dept. Immuno. & Cell Biology, Scripps Res. Instit., La Jolla, Calif.) for 2 hours at 4° C. followed by incubation with 60 μl of 1:1 protein A beads for 60 minutes, then 5×1.0 ml lysis buffer washes and 2 washes with kinase buffer (50 mM HEPES, pH 7.5, 10 mM MgCl2 0.2 mM dithiothreitol, 2 μg myelin basic protein and 14 Mμ [r-^32P] ATP) for 20 minutes at 30° C. The reaction was stopped with SDS sample buffer, and results were visualized by SDS-PAGE and autoradiography.
(§1) It has been discovered that the administration of AII results in biphasic activation of MAP kinase (all of the MAP kinase experiments were conducted in CHO-AT1a cells—AII receptor AT1a cDNA transfected Chinese hamster ovary cells).

ERK = ERK activity in CHO-AT1a cells; type: cell-based, Chinese hamster; conditions: AII 10^−7M
Procedure: ERK activity was evaluated by the substrate-SDS-polyacrylamide gel method described in Anal. Biochem., 183:139-143 (1989). Confluent cells in […] were made quiescent in serum-free medium and then treated with agonists for various time periods. The cells were then lysed in lysis buffer (1% NP40, 1% sodium deoxycholate, 0.1% SDS, 100 mM NaCl, 50 mM Tris, 10 mM EDTA, 1 mM EGTA, aprotinin, […], 0.1 mM PMSF and 1 mM sodium orthovanadate, pH 7.4). Lysates were centrifuged to pellet nuclei and the cell extracts ([…]) were subjected to electrophoresis on SDS-polyacrylamide gels (10%) containing myelin basic protein (0.5 mg/ml) as an ERK substrate. The SDS was then washed, followed by denaturation, renaturation and protein phosphorylation on the gel with [^32P] ATP.
as §1

JNK = JNK activity in CHO-AT1a cells; type: cell-based, Chinese hamster; conditions: AII 10^−7M
Procedure: The plasmid pGEX-cJun 1/79 (Dept. Pharmacol. UCSD, La Jolla) is a GST-cJun (1-79) expression vector encoding amino acids (1-79) of cJun. The GST fusion protein expression vector was transformed into E. Coli. Protein was induced with 0.1 mM IPTG and purified by affinity binding to glutathione-agarose beads. Unstimulated or stimulated cells were lysed into WCEB (25 mM HEPES, pH 7.7, 03.M Nacl, 15 mM MgCl2, 02.mM EDTA and 0.1% triton X-100). About 50 μg protein extract was incubated with GST-cJun+GSH agarose overnight at 4° C. Phosphorylation was carried out at 30° C. for 20 minutes in the presence of 20 mM HEPES, pH 7.5, 20 mM b-glycerophosphate, 10 mM p-nitrophenolphosphate, 10 mM MgCl2, 10 mM DDT, 50 μg Na3VO4, 20 μM ATP (cold) and about 0.5 μl of new gamma ^32P-ATP. After boiling with electrophoresis sample buffer, the supernatants were analyzed on 12% SDS-PAGE. JNK activity was also measured by immunoprecipitation method using an anti-JNK antibody (Parmingen Co., San Diego) and then activities were measured using 2 μg of GST-cJun (1-79) as substrate as described in Cell, 81:1147-1157 (1995).
as §1

Angiotensin II (DRVYIHPF; Angiotensin-2; UniProt P01019 25-32, looked up) [AII, peptide hormone, added to cells as stimulus]
release of 12-HETE (12-LO activity in HSMC; AII 10^−8M, 5 minute incubation, serum free media, control 599±105): 1467±277 pg per mg of protein | release of 12-HETE (12-LO activity in HSMC; AII 10^−8 mol/L, ten minute incubation): significantly simulated the release of 12-HETE | release of 12-HETE (12-LO activity in HSMC; AII 10^−9 mol/L, 5 minute incubation, serum free media, control 599±105): 1296±262 pg per mg of protein | cell-associated 12-HETE levels (12-LO activity in HSMC; HSMC, FIG. 3B): significantly also increased | stimulation of PAK, major peak (PAK): 5 fold | stimulation of ERK activity, later peak (ERK; 3-4.5 hours): 1.5-3 fold | stimulation of ERK activity, first peak (ERK; 5 minutes): 2-6 fold | stimulation of JNK activity (JNK): peaks at 30 minutes and remains sustained for 1 hour
